Test results reported in US11413360B2, “Dual mode radiotracer and—therapeutics” (priority 2017, dated 2022).
Read-outs that look alike come from different tables or passages of the source.

What was measured:
[1] = in vivo
PSMA = biological target: T1, PSMA (Homo sapiens, UniProt Q04609); assay: Determination of PSMA affinity (IC50), competition with ([125I]I-BA)KuE on LNCaP cells; type: binding; conditions: ([125I]I-BA)KuE 0.2 nM, 1 h, 4° C., mean ± SD, read-out: IC50
T1 construct: endogenous in cells; host or cells: LNCaP cells
T1 sequence (Q04609 whole entry): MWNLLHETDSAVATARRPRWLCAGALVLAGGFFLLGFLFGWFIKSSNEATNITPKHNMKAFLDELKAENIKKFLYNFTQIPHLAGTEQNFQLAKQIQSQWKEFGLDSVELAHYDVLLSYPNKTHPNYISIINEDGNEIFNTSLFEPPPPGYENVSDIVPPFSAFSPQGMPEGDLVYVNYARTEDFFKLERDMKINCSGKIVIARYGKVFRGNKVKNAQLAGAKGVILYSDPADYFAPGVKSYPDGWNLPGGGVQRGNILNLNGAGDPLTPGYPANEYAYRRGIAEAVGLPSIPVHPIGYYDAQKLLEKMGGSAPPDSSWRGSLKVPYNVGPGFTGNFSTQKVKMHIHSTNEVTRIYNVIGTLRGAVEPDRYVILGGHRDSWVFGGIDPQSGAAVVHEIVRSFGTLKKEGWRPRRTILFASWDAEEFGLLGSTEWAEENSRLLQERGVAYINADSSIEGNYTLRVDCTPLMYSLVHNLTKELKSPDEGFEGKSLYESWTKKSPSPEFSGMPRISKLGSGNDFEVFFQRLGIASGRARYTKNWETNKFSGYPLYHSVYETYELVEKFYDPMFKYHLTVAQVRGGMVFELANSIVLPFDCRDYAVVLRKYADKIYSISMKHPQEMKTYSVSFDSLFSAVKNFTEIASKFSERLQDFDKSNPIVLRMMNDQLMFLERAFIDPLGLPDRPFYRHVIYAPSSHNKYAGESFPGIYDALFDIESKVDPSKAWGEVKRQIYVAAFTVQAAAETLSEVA
Protocol: After removal of the culture medium, the cells were treated once with 500 μL of HBSS (Hank's balanced salt solution, Biochrom, Berlin, Germany, with addition of 1% bovine serum albumin (BSA)) and left 15 min on ice for equilibration in 200 μL HBSS (1% BSA). […] Quantification of bound and free radioligand was accomplished in a γ-counter.

[2] = Octanol-water partition coefficient (log D) of radiolabelled ligands; type: physicochemical; conditions: n-octanol/PBS, n = 6
Protocol: Approximately 1 MBq of the labelled tracer was dissolved in 1 mL of a 1:1 mixture (by volumes) of phosphate buffered saline (PBS, pH 7.4) and n-octanol in an Eppendorf tube. After vigorous mixing of the suspension for 3 minutes at room temperature, the vial was centrifuged at 15000 g for 3 minutes (Biofuge 15, Heraus Sepatech, Osterode, Germany) and 100 μL aliquots of both layers were measured in a gamma counter. The experiment was repeated at least six times.

Human Serum Albumin = Human Serum Albumin (Homo sapiens, UniProt P02768); assay: HSA binding on Chiralpak HSA column; type: in vitro ADME
Chain of Human Serum Albumin (P02768 25-609): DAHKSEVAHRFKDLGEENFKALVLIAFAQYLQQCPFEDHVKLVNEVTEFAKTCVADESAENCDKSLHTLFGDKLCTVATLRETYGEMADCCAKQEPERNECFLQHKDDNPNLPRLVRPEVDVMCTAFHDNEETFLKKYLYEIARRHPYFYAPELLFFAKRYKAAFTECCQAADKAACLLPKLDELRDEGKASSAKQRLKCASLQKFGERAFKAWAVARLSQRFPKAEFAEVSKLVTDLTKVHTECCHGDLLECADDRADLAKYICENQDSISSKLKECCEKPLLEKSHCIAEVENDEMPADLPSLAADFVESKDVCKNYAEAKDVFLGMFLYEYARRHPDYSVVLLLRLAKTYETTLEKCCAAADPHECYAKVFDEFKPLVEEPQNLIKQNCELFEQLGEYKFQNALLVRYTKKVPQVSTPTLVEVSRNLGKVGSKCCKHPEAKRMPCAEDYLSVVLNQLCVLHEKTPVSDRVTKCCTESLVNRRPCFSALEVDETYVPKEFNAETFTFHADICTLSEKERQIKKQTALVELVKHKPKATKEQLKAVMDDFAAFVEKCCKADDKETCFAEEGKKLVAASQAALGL
Protocol: The mobile phase (A: NH4OAc, 50 mM in water, pH 7 and B: isopropanol) was freshly prepared for each experiment and only used for one day. The column was kept at room temperature and each run was stopped after detection of the signal to reduce the acquisition time. All substances were dissolved in a 0.5 mg/ml concentration in 50% 2-propanol and 50% 50 mM pH 6.9 ammonium acetate buffer. […] All nine reference substances (see Table 1) were injected consecutively to establish a non-linear regression with OriginPro 2016G; see FIG. 1.

[3] = system: prostate cancer tumor lesions; assay: Human PET uptake in and detection of prostate cancer tumor lesions with 18F-labelled PSMA-SIFA3 (7); type: in vivo
Text: Gluteal muscle served as background.

LNCaP cells = assay: Internalization of radiolabelled ligands into LNCaP cells; type: cell-based
Protocol: Subsequent to the removal of the culture medium, the cells were washed once with 500 μL DMEM-F12 (5% BSA) and left to equilibrate for at least 15 min at 37° C. in 200 μL DMEM-F12 (5% BSA). Each well was treated with either 25 μL of either DMEM-F12 (5% BSA) or a 100 μM PMPA solution for blockade. […] The experiment was terminated by placing the 24-well plate on ice for 3 min and consecutive removal of the medium. Each well was rinsed with 250 μL HBSS and the fractions from these first two steps combined, representing the amount of free radioligand. Removal of surface bound activity was accomplished by incubation of the cells with 250 μL of ice-cold PMPA (10 μM in PBS) solution for 5 min and rinsed again with another 250 μL of ice-cold PBS. The internalized activity was determined by incubation of the cells in 250 μL 1 M NaOH and the combination with the fraction of a subsequent wash step with 250 μL 1.0 M NaOH. Each experiment (control and blockade) was performed in triplicate. Free, surface bound and internalized activity was quantified in a γ-counter. […] Data were corrected for non-specific internalization and normalized to the specific-internalization observed for the radioiodinated reference compound.

[4] = system: recurrent prostate cancer; assay: PET/MR with 68Ga-labelled PSMA-SIFA3 (7) in one subject; type: in vivo, human; conditions: 144 MBq, PET/MR 66 min after injection, one subject with biochemical recurrence
Protocol: As a proof on concept investigation of a ^68Ga-labelled SiFA substituted chelator-based PET tracers one subject with biochemical recurrence after radical prostatectomy (PSA 0.44 ng/ml, pT2c, pNO, Gleason 7b) underwent PET/MR 66 min after injection of 144 MBq ^68Ga-labelled PSMA-SIFA3 (7).

[5] = 18F-labelled, of 72 lesions analysed
[6] = 35 lesions with no correlate or small size on morphological imaging, 18F-labelled, human PET
[7] = bone metastases (n=21), 18F-labelled, human PET
[8] = local tumor (n=24), 18F-labelled, human PET
[9] = lymph node metastases (n=23), 18F-labelled, human PET
[10] = tumor lesions, 18F-labelled, human PET, n = 72
[11] = visceral metastases (n=4), 18F-labelled, human PET

## CC(C)(C)[Si](F)(c1ccc(C(=O)NC[C@@H](NC(=O)CCC(C(=O)O)N2CCN(CC(=O)O)CCN(CC(=O)O)CCN(CC(=O)O)CC2)C(=O)N[C@H](CCCCNC(=O)CCC(=O)NCCC[C@@H](NC(=O)CC[C@H](NC(=O)N[C@@H](CCC(=O)O)C(=O)O)C(=O)O)C(=O)O)C(=O)O)cc1)C(C)(C)C (some centres unmarked) [ligand 7, PSMA-SIFA3]
[1]
  adverse events / clinically detectable pharmacological effects: No adverse events or clinically detectable pharmacological effects were noted
PSMA; natF-L (uncomplexed)
  IC50: 3.5 ± 0.2 nM
PSMA; natGa-natF-L
  IC50: 3 ± 0.7 nM
PSMA; natLu-natF-L
  IC50: 3.9 ± 0.5 nM
[2]; pH 7.4, 18F-L
  logD: -1.98 ± 0.04
[2]; pH 7.4, 68Ga-natF-L
  logD: -3.18 ± 0.05
[2]; pH 7.4, 177Lu-natF-L
  logD: -4.2 ± 0.09
Human Serum Albumin; natGa-natF-L
  HSA binding: 95.7%
Human Serum Albumin; natLu-natF-L
  HSA binding: 97.7%
[3]
  SUVmax max: 25
  SUVmean max: 28.3
  ratio SUVmax to background max: 43.8
  ratio SUVmean to background max: 56.6
[3]; 18F-labelled, 53 subjects imaged (primary staging n=6, recurrent disease n=47)
  patients in whom lesions indicative for prostate cancer were detected: 39 patients
[3]; [5]
  lesions with no correlate on morphological imaging: 21 lesions
  lesions with size of equal or less than 5 mm on morphological imaging: 14 lesions
[3]; 18F-labelled, single patients, FIG. 26 and FIG. 27
  uptake in prostate cancer lesions (individual patient images): high uptake
[3]; [6]
  SUVmax mean: 16.7
  SUVmax min: 9.2
  SUVmean mean: 13.3
  SUVmean min: 6.4
  ratio SUVmax to background mean: 18.3
  ratio SUVmax to background min: 5.8
  ratio SUVmean to background mean: 22.9
  ratio SUVmean to background min: 7.1
[3]; [7]
  SUVmax max: 95.4
  SUVmax mean: 31.2
  SUVmax min: 7.9
  SUVmean max: 71.7
  SUVmean mean: 22.2
  SUVmean min: 5.3
  ratio SUVmax to background max: 73.4
  ratio SUVmax to background mean: 32.8
  ratio SUVmax to background min: 7.9
  ratio SUVmean to background max: 80
  ratio SUVmean to background mean: 36.6
  ratio SUVmean to background min: 8.8
[3]; [8]
  SUVmax max: 75.1
  SUVmax mean: 26.9
  SUVmax min: 4
  SUVmean max: 19.3
  SUVmean mean: 19.3
  SUVmean min: 2.7
  ratio SUVmax to background max: 83.4
  ratio SUVmax to background mean: 29.6
  ratio SUVmax to background min: 5
  ratio SUVmean to background max: 83.2
  ratio SUVmean to background mean: 32.4
  ratio SUVmean to background min: 5.4
[3]; [9]
  SUVmax max: 67.5
  SUVmax mean: 22.2
  SUVmax min: 8.1
  SUVmean max: 44.6
  SUVmean mean: 16.6
  SUVmean min: 6.4
  ratio SUVmax to background max: 63.6
  ratio SUVmax to background mean: 23.7
  ratio SUVmax to background min: 5.8
  ratio SUVmean to background max: 70.7
  ratio SUVmean to background mean: 27.3
  ratio SUVmean to background min: 7.1
[3]; [10]
  SUVmax max: 95.4
  SUVmax mean: 26.6
  SUVmax min: 4.0
  SUVmean max: 71.7
  SUVmean mean: 19.2
  SUVmean min: 2.7
  ratio SUVmax to background max: 83.4
  ratio SUVmax to background mean: 28.6
  ratio SUVmax to background min: 5.0
  ratio SUVmean to background max: 83.2
  ratio SUVmean to background mean: 31.9
  ratio SUVmean to background min: 5.4
[3]; [11]
  SUVmax max: 32.5
  SUVmax mean: 26.1
  SUVmax min: 20.4
  SUVmean max: 19.1
  SUVmean mean: 17.4
  SUVmean min: 15.5
  ratio SUVmax to background max: 40.6
  ratio SUVmax to background mean: 28.9
  ratio SUVmax to background min: 18.5
  ratio SUVmean to background max: 38.2
  ratio SUVmean to background mean: 30.2
  ratio SUVmean to background min: 22.1
LNCaP cells; 18F-L, 0.5 nM, 1 hour, 37° C., % of reference ligand ([125I]I-BA)KuE, mean ± SD
  Internalization: 164.8 ± 4.5%
LNCaP cells; 177Lu-natF-L, 0.5 nM, 1 hour, 37° C., % of reference ligand ([125I]I-BA)KuE, mean ± SD
  Internalization: 185.8 ± 4.5%
LNCaP cells; 1 h, 0.0005 µM
  Internalization: 126.0 ± 13.1%
[4]
  uptake in lesion (proof of concept): Uptake typical for recurrent prostate cancer is demonstrated in a 2 mm lymph node
